# Assay results published in US20170209472A1, “PREVENTION OR TREATMENT OF FOOD ALLERGY IN INFANTS AND TODDLERS” (N.V. Nutricia, priority 2014, published 2017).
# Legend:
# [1] = water and polar solvents such as methanol and acetonitrile; cited from earlier work
# [2] = test system: whey protein allergy response; settings: C3H/HeOuJ mice sensitized with low or high dose DON with or without whey; FIG. 2
# [3] = test system: IL-33; settings: distal small intestine after DON gavage, vs control mice
# [4] = test system: Caco-2 cells; assay: IL-33 in DON-stimulated Caco-2 cells; format: cell-based; settings: data not shown
# [5] = test system: IL-33 mRNA; settings: distal small intestine, 6 h after oral DON gavage 25 mg/kg, vs control mice
# [6] = test system: IL-33; assay: systemic IL-33 measured by ELISA in mice serum; format: in vivo; settings: DON gavage; data not shown
smiles,measurement,setting,value
"CC1=C[C@H]2O[C@@H]3[C@H](O)C[C@](C)([C@@]2(CO)[C@H](O)C1=O)[C@]31CO1 [DON, (3α, 7α)-3,7,15-trihydroxy-12,13-epoxytrichothec-9-en-8-one]",solubility,[1],soluble
same,whey protein allergy response (ear swelling),[2],significantly increases
same,IL-33 production (immunohistochemistry),[3],obviously increased
same,IL-33 levels in the supernatant,[4],did not induce increased
same,IL-33 mRNA expression levels,[4],did not induce increased
same,IL-33 mRNA expression,[5],increase
same,systemic IL-33 in serum,[6],neither affected
